Reference: patent US20260248768A1, “MYC PROGRAM AS A MARKER OF RESPONSE TO ENZALUTAMIDE IN PROSTATE CANCER” (Rutgers, The State University of New Jersey, priority 2022, published 2026)

Experiments:
Format in all cases: cell-based
MYC = assay: Doxycycline-inducible shRNA knockdown of NME2, MYC expression by Western blot; details: C4-2B cells; 0-2000 ng/mL doxycycline for 96 hours; Western blot (FIG. 15)
Experimental: Finally, C4-2B cells expressing doxycycline-inducible shRNA targeting NME2 were generated using the targeting sequence […] (SEQ ID NO: 9). Cells were treated with 0-2000 ng/mL doxycycline for 96 hours and NME2 and MYC expression were evaluated by Western blot.

C42B-EnzaRes cells [1] = assay: Colony formation assay, Enzalutamide-resistant C42B cells; details: MYCi975 2 μM, Enzalutamide 10 μM, compared to Intact (DMSO)
Experimental: (§1) FIGS. 13A-13F show MYC targeting is beneficial for patients in Enzalutamide-resistant conditions. (FIG. 13A) Drug sensitivity curves of Enzalutamide-naïve, or Enzalutamide-resistant (EnzaRes) C42B cells treated with MYCi975. (FIG. 13B) Colony formation assay using Enzalutamide-resistant (EnzaRes) C42B cells in Intact (treated with DMSO), treated with Enzalutamide (10 μM), MYCi975 (2 μM), or a combination of Enzalutamide+MYCi975 (10 μM+2 μM). Cells were grown in the presence of respective drugs. Representative images are shown. P-value was estimated using a one-tailed Welch t-test. (FIG. 13C) Boyden chamber-based in vitro migration assay using Enzalutamide-resistant (EnzaRes) C42B cells in Intact (treated with DMSO), treated with Enzalutamide (10 μM), MYCi975 (2 μM), or a combination of Enzalutamide+MYCi975 (10 μM+2 μM). Bars represent the quantification of Crystal Violet trapped by migrated cells. P-value was estimated using a one-tailed Welch t-test. (FIG. 13D) Expression of NME2 in Intact and Enzalutamide-resistant (EnzaRes) C42B cells, using the qRT-PCR. P-value was estimated using the one-tailed Welch t-test. […] Bars represent the quantification of Crystal Violet trapped by migrated cells. * p-value <0.05, ** p-value≤0.01, *** p-value≤0.001 […]

C42B cells = assay: Dose-response cell viability assay in C42B cells; details: both Enzalutamide-naïve and Enzalutamide-resistant conditions, dose-dependent manner (FIG. 13A)
Experimental: as §1

C42B-EnzaRes cells [2] = assay: Boyden chamber-based in vitro migration assay; details: MYCi975 2 μM, Enzalutamide 10 μM, vs Intact (DMSO)
Experimental: FIGS. 13A-13F show MYC targeting is beneficial for patients in Enzalutamide-resistant conditions. (FIG. 13A) Drug sensitivity curves of Enzalutamide-naïve, or Enzalutamide-resistant (EnzaRes) C42B cells treated with MYCi975. (FIG. 13B) Colony formation assay using Enzalutamide-resistant (EnzaRes) C42B cells in Intact (treated with DMSO), treated with Enzalutamide (10 μM), MYCi975 (2 μM), or a combination of Enzalutamide+MYCi975 (10 μM+2 μM). Cells were grown in the presence of respective drugs. Representative images are shown. P-value was estimated using a one-tailed Welch t-test. (FIG. 13C) Boyden chamber-based in vitro migration assay using Enzalutamide-resistant (EnzaRes) C42B cells in Intact (treated with DMSO), treated with Enzalutamide (10 μM), MYCi975 (2 μM), or a combination of Enzalutamide+MYCi975 (10 μM+2 μM). Bars represent the quantification of Crystal Violet trapped by migrated cells. P-value was estimated using a one-tailed Welch t-test. (FIG. 13D) Expression of NME2 in Intact and Enzalutamide-resistant (EnzaRes) C42B cells, using the qRT-PCR. P-value was estimated using the one-tailed Welch t-test. […] Bars represent the quantification of Crystal Violet trapped by migrated cells. * p-value <0.05, ** p-value≤0.01, *** p-value≤0.001

LNCaP cells = assay: Dose-response cell viability assay in LNCaP cells; details: both Enzalutamide-naïve and Enzalutamide-resistant conditions, dose-dependent manner (FIG. 14A)
Experimental: (§2) FIGS. 14A and 14B show MYC inhibition reduces viability and colony formation in Enzalutamide resistant conditions. (FIG. 14A) Drug response curves of Enzalutamide naïve LNCaP or Enzalutamide-resistant LNCaP cells treated with Enzalutamide and/or MYC-i975. (FIG. 14B) Colony formation assay using Enzalutamide-resistant LNCaP cells t (LNCaP-Enza-Res) in intact (treated with DMSO), treated with enzalutamide (10 μM), MYC-i975 (2 μM), or a combination of Enzalutamide+MYC-i975 (10 μM+2 μM). Cells were grown in the presence of respective drugs. Bars represent quantification of Crystal Violet trapped by migrated cells. P-value is estimated utilizing one-tailed Welch t-test. * p<0.05, *** p≤0.001.
(§3) Generation of Enzalutamide-resistant cell lines: LNCaP (clone FDG) and C42B cells were purchased from ATCC and were grown in RPMI1640 media (GIBCO #11875093) supplemented with 10% Fetal Bovine Serum (FBS, Corning Cat #35-011-CV) and maintained at […] in and 5% CO2. Enzalutamide powder was purchased from Sellekchem (cat #S1250) and re-suspended in DMSO. Cells were plated in 6 well plates and treated either with DMSO, or with Enzalutamide (20 μM), refreshed every 4 days for up to 3 months until the resistance emerged. RNA from cells was extracted on indicated days using the methods described below. […]

LNCaP-EnzaRes cells = assay: Colony formation assay, Enzalutamide-resistant LNCaP cells; details: MYCi975 2 μM, Enzalutamide 10 μM, compared to Intact (DMSO)
Experimental: as §2, §3

Compound	MYC expression (MYC)	colony formation (C42B-EnzaRes cells [1])	cell viability (C42B cells)	cell migration (C42B-EnzaRes cells [2])	cell viability (LNCaP cells)	colony formation (LNCaP-EnzaRes cells)
shRNA targeting NME2: doxycycline-inducible shRNA targeting NME2, targeting sequence GAAATCAGCCTATGGTTTAAG	suppresses MYC expression					
Cn1nc(C(F)(F)F)cc1-c1ccc(OCc2ccc(Cl)cc2)c(-c2ccc(Cl)c(C(F)(F)F)c2)c1O [MYCi975]		reduced the colony formation	striking reduction of the cell viability	significant reduction in cell migration	striking reduction of the cell viability	reduced the colony formation
